According to patent publication US12178880B2, “Antibody-drug conjugate, and intermediate thereof, preparation method therefor, and application thereof” (SHANGHAI FUDAN-ZHANGJIANG BIO-PHARMACEUTICAL CO., LTD., priority 2020, dated 2024):
Where two headings read alike, the source gives them in different places. *1 amine or outer side, *2 acyl side, *3 side chain or, on linkers, in order; H or OH if unused. Where a SMILES comes first, the peptide text is derived from it. [ ]: non-standard residue; d: D form. The star is where a group is joined. X1 = CC[C@@]1(O)C(=O)OCc2c1cc1n(c2=O)Cc2c-1nc1cc(F)c(C)c3c1c2[C@H](N*)CC3; Hexanoyl(6-maleimido) = O=C1C=CC(=O)N1CCCCCC(=O)*; NHCH2OCH2CO = O=C(COCN[*:1])[*:2]

Columns and labels:
[1] = target: tissue proteinase B (Homo sapiens, UniProt P07858); test: In vitro enzyme digestion of linker-drug conjugates; assay type: biochemical; conditions: for speed of enzyme digestion (in words): pH 5.0 to 7.0
Protocol: The linker-drug conjugate (LE14 and GGFG-Dxd) was co-incubated with tissue proteinase B in three different pH (5.0, 6.0, 7.0) buffers. Samples were taken at different time points and entered into a high-performance liquid chromatography-mass spectrometry instrument. The external standard method (with DXD as the external standard) was used to determine the release percentage of the drug.

[2] = Coupling of linker-drug conjugates with other antibodies; assay type: physicochemical
[3] = system: SK-BR-3 cell line; test: Killing activity of FDA026-LS13 before and after enzyme digestion; assay type: cell-based; conditions: 144 hours
Protocol: SK-BR-3 cell line was selected as the experimental cells. After the sample was incubated in tissue proteinase B system (100 mM sodium acetate-acetic acid buffer, 4 mM dithiothreitol, pH 5.0) at 37° C. for 4 hours, the obtained sample was diluted with culture medium to different concentrations. 8 concentrations (1.5 to 10-fold dilution) were set from 70 nM to 0.003 nM of SN-38 concentration. […] The IC50 value was calculated by reading the […] after chemical luminescent staining with CellTiter-Glo® Luminescent Cell Viability Assay.

SMILES | Percentage of drug release in the sample ([1]; pH 5.0, 0 h) | Percentage of drug release in the sample ([1]; pH 5.0, 1 h) | Percentage of drug release in the sample ([1]; pH 5.0, 2 h) | Percentage of drug release in the sample ([1]; pH 5.0, 3 h) | Percentage of drug release in the sample ([1]; pH 5.0, 4 h) | Percentage of drug release in the sample ([1]; pH 5.0, 5 h) | Percentage of drug release in the sample ([1]; pH 5.0, 6 h) | speed of enzyme digestion (in words) [1] | Percentage of drug release in the sample ([1]; pH 6.0, 0 h) | Percentage of drug release in the sample ([1]; pH 6.0, 1 h) | Percentage of drug release in the sample ([1]; pH 6.0, 2 h) | Percentage of drug release in the sample ([1]; pH 6.0, 3 h) | Percentage of drug release in the sample ([1]; pH 6.0, 4 h) | Percentage of drug release in the sample ([1]; pH 6.0, 5 h) | Percentage of drug release in the sample ([1]; pH 6.0, 6 h) | Percentage of drug release in the sample ([1]; pH 7.0, 0 h) | Percentage of drug release in the sample ([1]; pH 7.0, 1 h) | Percentage of drug release in the sample ([1]; pH 7.0, 2 h) | Percentage of drug release in the sample ([1]; pH 7.0, 3 h) | Percentage of drug release in the sample ([1]; pH 7.0, 4 h) | other results
CC[C@@]1(O)C(=O)OCc2c1cc1n(c2=O)Cc2c-1nc1cc(F)c(C)c3c1c2[C@H](NC(=O)COCNC(=O)CNC(=O)[C@H](Cc1ccccc1)NC(=O)CNC(=O)CNC(=O)CCCCCN1C(=O)C=CC1=O)CC3 [GGFG-Dxd, reference compound] ({Hexanoyl(6-maleimido)}-GGFG[NHCH2OCH2CO]-X1) | 21.62% | 25% | 25.85% | 27.76% | 29.72% | 31.69% | 34.17% | slow speed of enzyme digestion | 23.58% | 24.8% | 27.02% | 29.29% | 31.37% | 33.05% | 35.95% | 22.98% | 26.53% | 29.52% | 31.95% | 34.78% | Percentage of drug release in the sample ([1]; pH 7.0, 5 h): 36.17%; Percentage of drug release in the sample ([1]; pH 7.0, 6 h): 38.25%; aggregation ratio when coupled with other antibodies [2]: high aggregation ratio; precipitation when coupled with other antibodies [2]: produces precipitation
CC[C@@]1(O)C(=O)OCc2c1cc1n(c2=O)Cc2c-1nc1cc(F)c(C)c3c1c2[C@@H](NC(=O)COCN(CCS(C)(=O)=O)C(=O)OCc1ccc(NC(=O)[C@H](C)NC(=O)[C@@H](NC(=O)CCCCCN2C(=O)C=CC2=O)C(C)C)cc1)CC3 [LE14] | 15% | 96.93% | 98.35% | 99.01% | 99.21% | 99.32% | 97.39% | quickly enzymatically digested | 14.28% | 95.98% | 96.8% | 98.45% | 98.81% | 98.9% | 99% | 17.59% | 98.05% | 99.08% | 99.33% | 99.2% | Percentage of drug release in the sample ([1]; pH 7.0, 5 h): 100%; Percentage of drug release in the sample ([1]; pH 7.0, 6 h): 99.39%
CCc1c2c(nc3ccc(O)cc13)-c1cc3c(c(=O)n1C2)COC(=O)[C@]3(O)CC [SN-38, 7-ethyl-10-hydroxycamptothecin] | – | – | – | – | – | – | – | – | – | – | – | – | – | – | – | – | – | – | – | – | IC50 ([3]; read-out: IC50 (based on SN-38 equivalent) Before Enzyme Digestion): 7.13 nM; IC50 ([3]; after tissue proteinase B system, pH 5.0, 37° C., 4 hours, read-out: IC50 (based on SN-38 equivalent) After Enzyme Digestion): 7.32 nM
